System: severe traumatic brain injury (sTBI)
Experiment: sTBI in rats, brain gene expression arrays and pathway analysis (Example 9)
Assay type: in vivo, Male Wistar rats
Parameters: key to z score, canonical pathway Dendritic Cell Maturation / z score, canonical pathway Adrenomedullin Signaling pathway / z score, canonical pathway Endothelin-1 Signaling / effect on canonical pathway Adrenomedullin Signaling pathway / effect on canonical pathway Endothelin-1 Signaling / effect on canonical pathway Dendritic Cell Maturation / Ingenuity canonical pathway Adrenomedullin signaling pathway, z score / Ingenuity canonical pathway FLT3 Signaling in Hematopoietic Progenitor Cells, z score / Ingenuity canonical pathway Opioid Signaling Pathway, z score / Ingenuity canonical pathway VDR/RXR Activation, z score / Ingenuity canonical pathway Neuropathic Pain Signaling In Dorsal Horn Neurons, z score / Ingenuity canonical pathway STAT3 Pathway, z score / Ingenuity canonical pathway IL-1 Signaling, z score / Ingenuity canonical pathway IL-6 Signaling, z score / Ingenuity canonical pathway NF-κB Signaling, z score / Ingenuity canonical pathway Role of NFAT in Cardiac Hypertrophy, z score / Ingenuity canonical pathway PPARα/RXRα Activation, z score: *: ambiguous effect
Conditions: for effect of TBI on molecular processes and diseases: given 30 minutes after injury; for TBI-induced alterations in neurodegeneration and scarring-related canonical pathways: given within 30 minutes of TBI
Method: The experimental protocol used in this study was approved by the Ethical Committee of the Catholic University of Rome, according to international standards and guidelines for animal care. Male Wistar rats of 300-350 g body weight were fed with standard laboratory diet and water ad libitum in a controlled environment. As the anesthetic mixture, the animals received 35 mg/kg b.w. ketamine and 0.25 mg/kg body weight midazolam by i.p. injection. Severe traumatic brain injury (sTBI) was induced by dropping a 450 g weight from 2 m height on to the rat head that had been protected by a metal disk previously fixed on the skull, according to the “weight drop” impact acceleration model (Marmarou et al., A new model of diffuse brain injury in rats. Part I: Pathophysiology and biomechanics. J Neurosurg. 1994; 80: 291-300). […] At the end of each period of treatment, rats were anesthetized again and then immediately sacrificed.
LMW-DS (Tikomed AB) was provided at a stock concentration of 20 mg/ml and was kept in a temperature-monitored refrigerator at 4° C. LMW-DS aliquots were diluted to the appropriate dosing concentration in sterile saline prior to delivery of a single subcutaneous injection.
Three doses of LMW-DS were administered subcutaneously 30 minutes post-TBI. The animals were sacrificed at 2 days post-TBI. The animals were divided into the following subgroups:
Three doses of LMW-DS were administered subcutaneously 30 minutes post-TBI. The animals were sacrificed at 7 days post-TBI. The animals were divided into the following subgroups:
An in vivo craniectomy was performed on all animals during anesthesia. After carefully removing the rat's skull, the brain was exposed and removed with a surgical spatula and quickly dropped in RNALater and preserved at 4° C. for further processing.
RNA extraction and array processing was carried out by SourceBioscience. The arrays used were the Agilent Rat expression arrays.
Statistical analysis was carried out using the Metaboanalyst software package. Gene expression changes of 10% with a p<0.05 were regarded as significant.
Pathway analysis of the differentially regulated genes was carried out using the Ingenuity pathway analysis package. The analysis was performed with special reference to pathways and molecular processes and diseases associated with neurodegenerative disease, including dementia, Alzheimer's disease, ALS, TBI and stroke, and with scarring and fibrosis, including glaucoma and normal pressure hydrocephalus (NPH) after subarachnoid haemorrhage.

[1] = TBI + 15 mg/kg repeat dose LMW-DS, after 7 days, TBI: Inhibited
[2] = TBI + 15 mg/kg repeated dose LMW-DS, 7 days after TBI
[3] = TBI + 15 mg/kg repeated dose LMW-DS, 7 days after TBI, relative to control

low molecular weight dextran sulfate [LMW-DS]
Diseases or functions annotation: Differentiation of bone cells [1]: Inhibited | Diseases or functions annotation: Differentiation of connective tissue cells [1]: Inhibited | Diseases or functions annotation: Digestive system cancer [1]: Inhibited | Diseases or functions annotation: Epithelial neoplasm [1]: Inhibited | Diseases or functions annotation: Formation of cellular protrusions [1]: Activated | Diseases or functions annotation: Formation of intercellular junctions [1]: Activated | Diseases or functions annotation: Learning [1]: Activated | Diseases or functions annotation: Microtubule dynamics [1]: Activated | Diseases or functions annotation: Migration of cells [1]: Activated | Diseases or functions annotation: Morphogenesis of neurons [1]: Activated | Diseases or functions annotation: Neurotransmission [1]: Activated | Diseases or functions annotation: Non-hematological solid tumor [1]: Inhibited | Diseases or functions annotation: Non-melanoma solid tumor [1]: Inhibited | Diseases or functions annotation: Nonhematologic malignant neoplasm [1]: Inhibited | Diseases or functions annotation: Organization of cytoplasm [1]: Activated | Diseases or functions annotation: Organization of cytoskeleton [1]: Activated | Diseases or functions annotation: Quantity of Ca^2+ [1]: Activated | Diseases or functions annotation: Quantity of carbohydrate [1]: Inhibited | Diseases or functions annotation: Quantity of cells [1]: Activated | Diseases or functions annotation: Size of body [1]: Activated | Diseases or functions annotation: Transport of ion [1]: Activated | Diseases or functions annotation: Transport of metal [1]: Activated | Diseases or functions annotation: Transport of molecule [1]: Activated | Diseases or functions annotation: Tumorigenesis of tissue [1]: Inhibited | Ingenuity canonical pathway: 3-phosphoinositide Degradation [2]: Activated | Ingenuity canonical pathway: Acute Phase Response Signaling [2]: Inhibited | Ingenuity canonical pathway: Adrenomedullin signaling pathway [2]: Inhibited | Ingenuity canonical pathway: B Cell Receptor Signaling [2]: Inhibited | Ingenuity canonical pathway: Ephrin Receptor Signaling [2]: Activated | Ingenuity canonical pathway: Fc Epsilon RI Signaling [2]: Inhibited | Ingenuity canonical pathway: G Beta Gamma Signaling [2]: Activated | Ingenuity canonical pathway: NF-κB Signaling [2]: Activated | Ingenuity canonical pathway: Opioid Signaling Pathway [2]: Activated | Ingenuity canonical pathway: Role of NFAT in Cardiac Hypertrophy [2]: Activated | Ingenuity canonical pathway: Role of NFAT in Regulation of the Immune Response [2]: Activated | Ingenuity canonical pathway: Signaling by Rho Family GTPases [2]: Activated | Ingenuity canonical pathway: Superpathway of Inositol Phosphate Compounds [2]: Activated | Ingenuity canonical pathway: Synaptic Long Term Depression [2]: Activated | z score: Abdominal cancer [2]: −2.015 | z score: Abdominal neoplasm [2]: −1.116 | z score: Adenocarcinoma [2]: −0.944 | z score: Branching of cells [2]: 0.397 | z score: Carcinoma [2]: −0.358 | z score: Cell movement [2]: 0.154 | z score: Cell-cell contact [2]: 1.504 | z score: Concentration of hormone [2]: 0.825 | z score: Concentration of lipid [2]: −0.204 | z score: Dendritic growth/branching [2]: −0.169 | z score: Development of connective tissue cells [2]: −0.005 | z score: Development of gap junctions [2]: 0.849 | z score: Development of neurons [2]: 0.688 | z score: Developmental process of synapse [2]: 0.849 | z score: Differentiation of bone cells [2]: −0.237 | z score: Differentiation of connective tissue cells [2]: −0.011 | z score: Digestive organ tumor [2]: −1.481 | z score: Digestive system cancer [2]: −1.513 | z score: Epithelial neoplasm [2]: −0.999 | z score: Extracranial solid tumor [2]: 0.529 | z score: Formation of cellular protrusions [2]: 1.183 | z score: Formation of intercellular junctions [2]: 0.391 | z score: Gastrointestinal tumor [2]: −1.284 | z score: Hematologic cancer [2]: −2.216 | z score: Hematopoietic neoplasm [2]: −2.027 | z score: Learning [2]: 0.469 | z score: Microtubule dynamics [2]: 1.962 | z score: Migration of cells [2]: 0.271 | z score: Morphogenesis of neurons [2]: 0.205 | z score: Neurotransmission [2]: 1.214 | z score: Non-hematologic malignant neoplasm [2]: −0.223 | z score: Non-hematological solid tumor [2]: −0.913 | z score: Non-melanoma solid tumor [2]: −1.478 | z score: Obesity [2]: 2.18 | z score: Organization of cytoplasm [2]: 1.922 | z score: Organization of cytoskeleton [2]: 1.922 | z score: Quantity of carbohydrate [2]: −0.017 | z score: Quantity of cells [2]: 0.493 | z score: Seizure disorder [2]: 1.376 | z score: Size of body [2]: 0.67 | z score: Skin lesion [2]: 0.532 | z score: Transport of ion [2]: 1.109 | z score: Transport of metal [2]: 1 | z score: Transport of molecule [2]: 1.143 | z score: Tumorigenesis of tissue [2]: −1.333 | Ingenuity canonical pathway 3-phosphoinositide Degradation, z score [3]: 2 | Ingenuity canonical pathway Acute Phase Response Signaling, z score [3]: −0.447 | Ingenuity canonical pathway Adrenomedullin signaling pathway, z score [3]: −0.378 | Ingenuity canonical pathway B Cell Receptor Signaling, z score [3]: −0.447 | Ingenuity canonical pathway Ephrin Receptor Signaling, z score [3]: 2.236 | Ingenuity canonical pathway FLT3 Signaling in Hematopoietic Progenitor Cells, z score [3]: * | Ingenuity canonical pathway Fc Epsilon RI Signaling, z score [3]: −1 | Ingenuity canonical pathway G Beta Gamma Signaling, z score [3]: 2.236 | Ingenuity canonical pathway IL-1 Signaling, z score [3]: * | Ingenuity canonical pathway IL-6 Signaling, z score [3]: * | Ingenuity canonical pathway NF-κB Signaling, z score [3]: 0.447 | Ingenuity canonical pathway Neuropathic Pain Signaling In Dorsal Horn Neurons, z score [3]: * | Ingenuity canonical pathway Opioid Signaling Pathway, z score [3]: 0.816 | Ingenuity canonical pathway Role of NFAT in Cardiac Hypertrophy, z score [3]: 0.447 | Ingenuity canonical pathway Role of NFAT in Regulation of the Immune Response, z score [3]: 2.236 | Ingenuity canonical pathway Signaling by Rho Family GTPases, z score [3]: 1 | Ingenuity canonical pathway Superpathway of Inositol Phosphate Compounds, z score [3]: 2 | Ingenuity canonical pathway Synaptic Long Term Depression, z score [3]: 1.342 | effect of TBI on molecular processes and diseases (2 days): mostly abolished | effect of TBI on molecular processes and diseases (7 days): mostly abolished | TBI-induced alterations in neurodegeneration and scarring-related canonical pathways (2 days): counteracted | TBI-induced alterations in neurodegeneration and scarring-related canonical pathways (7 days): counteracted
